Series [1] relates to isolated aortic ring segments. Put plainly: Direct vasodilatory effects, isometric tension recording in isolated aortic ring segments. The following applies: cumulative concentrations 1 nM to 32 or 100 μM; versus DMSO. Also on record: species or system rats. The protocol: FIGS. 9A and 9B show direct vasodilatory effects of gliptins. […] The data are mean±SEM of 12 (FIG. 9A) or 4 (FIG. 9B) aortic rings from 10 rats in total: p<0.05 vs. DMSO (solvent control); ^#p<0.05 vs. sita-/vildagliptin, and ^§, p<0.05 vs. saxa-/alogliptin.
Direct vasodilatory effects of gliptins are measured by the isometric tension technique in isolated aortic ring segments. […] In addition reactive oxygen and nitrogen species (RONS) formation is determined in isolated cardiac mitochondria and LPS or PDBu-triggered oxidative burst in whole blood.

The test system of series [2] is T2DM patients on stable metformin.
Text: Efficacy analyses are based on HbA1c change from baseline in the full analysis set (FAS) and per-protocol (PP) population. Safety evaluations includ pre-specified, prospective, and adjudicated capture of cardiovascular (CV) events (CV death, non-fatal myocardial infarction or stroke, unstable angina with hospitalization).
Series [3] concerns diabetic eNOS knockout C57BL/6J mice. Put plainly: ARB-resistant diabetic nephropathy in diabetic eNOS knockout C57BL/6J mice, 12 weeks. In kind it is in vivo. From the text: Fourteen mice are used as non-diabetic controls. After 12 weeks, urine and blood are obtained and blood pressure measured.
The next series concerns diabetic eNOS ko mice. The series is described as follows: Diabetic nephropathy in STZ-diabetic eNOS ko mice, 4 weeks treatment. In kind it is in vivo. As to conditions: STZ treated animals, linagliptin 3 mg/kg, telmisartan 1 mg/kg p.o. The source says: Endothelial damage is characteristic for type 2 diabetes and contributes to the development of end stage kidney disease. Further, vascular endothelial NO synthase (eNOS) activity is altered in T2D and genetic abnormalities in the respected gene (NOS3) are associated with the development of advanced diabetic nephropathy (DN) in patients with type 1 and type 2 diabetes. The use of low dose STZ to induce T2D in this genetic phenotype (eNOS−/−) has been recently reported (Brosius et al, JASN 2009) to be a valid experimental model for DN. Eight week old eNOS −/− mice are rendered diabetic with intraperitoneal injections of streptozotocin (100 mg/kg per day for two consecutive days). Development of diabetes (defined by blood glucose>250 mg/dl) is verified one week after streptozotocin injection. No insulin is given because that could prevent the development of diabetic nephropathy. Mice are treated for 4 weeks with:
1) Non-diabetic eNOS ko control mice, placebo (natrosol) (n=14)
2) sham treated diabetic eNOS ko mice, placebo (natrosol) (n=17)
3) Telmisartan (p.o. 1 mg/kg) treated diabetic eNOS ko mice (n=17)
Renal function (s-creatinine, albuminuria) and blood glucose level are detected.

A further series has as its system 2K1C-rats. Put plainly: Two-kidney-one clip reno-vascular hypertension (2K1C) rat model, systolic blood pressure. In kind it is in vivo. The following applies: 3 months; telmisartan 10 mg/kg, linagliptin 89 ppm in chow. From the text:
We hypothesize that glucose/energy supply is particularly important in the failing heart that is characterized by cardiac hypertrophy. Inadequate energy supply is considered as one of the most important steps from compensated to decompensated left ventricular hypertrophy resulting in heart failure. A classical model of hypertension induced left ventricular hypertrophy that results on the long run in left ventricular failure and pathological remodeling is the two-kidney-one clip reno-vascular hypertension (Goldblatt) model (2K1C model).
[…]. Non-invasive, systolic blood pressure is measured in all groups to the time points (1. before treatment; 2. after 1 weeks 3. after 4 weeks; 4. after 6 weeks 5. after 12 weeks; and 6. after 6 weeks of treatment with the respective compounds.

Series [4] deals with superoxide formation from xanthine oxidase. Put plainly: Direct antioxidant effect: superoxide formation from xanthine oxidase.

These results are taken from patent US11911387B2, “Vasoprotective and cardioprotective antidiabetic therapy” (Boehringer Ingelheim International GmbH, priority 2010, dated 2024).

With `Cn1c(=O)cc(N2CCC[C@@H](N)C2)n(Cc2ccccc2C#N)c1=O` [alogliptin], the “direct vasodilatory effect (induction of vasodilation), ranking” value (“direct vasodilatory effect” below) in series [1] was “directly followed by alogliptin and vildagliptin”.
For the molecule `CCC1=C(C)CN(C(=O)NCCc2ccc(S(=O)(=O)NC(=O)N[C@H]3CC[C@H](C)CC3)cc2)C1=O` [glimepiride, reference compound], the “adjusted mean HbA1c change from baseline” value in series [2] (PP population, 2 years, linagliptin 5 mg/day, glimepiride mean dose 3 mg/day, added to metformin) is reported as −0.5%. Also, in series [2] (human, in vivo, 2 years), the “patients with investigator-defined, drug-related hypoglycemia” value stood at 36.1%. Also, the body weight change result in series [2] (in vivo) is recorded as “+1.3 kg”.
For `N[C@@H](CC(=O)N1CCn2c(nnc2C(F)(F)F)C1)Cc1cc(F)c(F)cc1F` [sitagliptin], the “direct vasodilatory effect” value in series [1] is listed as “not more efficient in the induction of vasodilation than the solvent alone control”.
With `CCCc1nc2c(C)cc(-c3nc4ccccc4n3C)cc2n1Cc1ccc(-c2ccccc2C(=O)O)cc1` [telmisartan], the “albuminuria, significance compared with diabetic controls” value in series [3] (12 weeks) is “not statistically significant”. This molecule also yielded a blood pressure in series [3] (12 weeks, mean±SEM) of 111.2±2.3 mmHg. Also, in series [3] (12 weeks, p=0.071), the “blood pressure reduction vs diabetic controls” value is on record as 5.9 mmHg. Also, in series [3] (12 weeks, telmisartan 1 mg/kg, linagliptin 3 mg/kg), the “albuminuria (urinary albumin excretion per 24 h)” value was 97.8±26.4 μg/24 h. Also, the “glomerulosclerosis in the kidney, histological score” value in series [3] (compared with diabetic controls, p<0.05) is “not significantly different”. Moreover, the “plasma neutrophil gelatinase-associated lipocalin (NGAL) levels” value in series [3] (compared with untreated diabetic mice) was “significantly increased”. The “blood sugar versus placebo” value in the series on diabetic eNOS ko mice was “No significant differences”. The “systolic blood pressure (RR systolic)” value in the series on 2K1C-rats was “always significant versus vehicle treated animals”.
On to `N#C[C@@H]1CCCN1C(=O)CNC12CC3CC(CC(O)(C3)C1)C2` [vildagliptin], for which the “suppression of superoxide formation” value in series [4] was “Minor (but significant) suppression”. For the same molecule, the “direct vasodilatory effect” value in series [1] was “directly followed by alogliptin and vildagliptin”.
